Patent publication US8618098B2, “Inhibitors of bruton's tyrosine kinase” (Roche Palo Alto LLC, priority 2008, dated 2013)
pIC50: −log10 of the molar value.

Columns and labels:
[1] = target: Btk enzyme (His-tagged, full-length) (Homo sapiens (Human), UniProt Q06187); assay: Bruton's Tyrosine Kinase (Btk) Inhibition Assay; type: biochemical; conditions: 33P filtration capture assay, 100 μM ATP, 30 μM biotinylated peptide substrate
Description: The assay is a capture of radioactive ^33P phosphorylated product through filtration. The interactions of Btk, biotinylated SH2 peptide substrate (Src homology), and ATP lead to phosphorylation of the peptide substrate. Biotinylated product is bound streptavidin sepharose beads. All bound, radiolabeled products are detected by scintillation counter.
Plates assayed are 96-well polypropylene (Greiner) and 96-well 1.2 μm hydrophilic PVDF filter plates (Millipore). Concentrations reported here are final assay concentrations: 10-100 μM compounds in DMSO (Burdick and Jackson), 5-10 nM Btk enzyme (His-tagged, full-length), 30 μM peptide substrate (Biotin-Aca-[…]-NH2), 100 μM ATP (Sigma), 8 mM imidazole (Sigma, pH 7.2), 8 mM glycerol-2-phosphate (Sigma), 200 μM EGTA (Roche Diagnostics), 1 mM MnCl2 (Sigma), 20 mM MgCl2 (Sigma), 0.1 mg/ml BSA (Sigma), 2 mM DTT (Sigma), 1 μCi ^33P ATP (Amersham), 20% streptavidin sepharose beads (Amersham), 50 mM EDTA (Gibco), 2 M NaCl (Gibco), 2 M NaCl w/1% phosphoric acid (Gibco), microscint-20 (Perkin Elmer).
IC50 determinations are calculated from 10 data points per compound utilizing data produced from a standard 96-well plate assay template. One control compound and seven unknown inhibitors were tested on each plate and each plate was run twice. Typically, compounds were diluted in half-log starting at 100 μM and ending at 3 nM. The control compound was staurosporine. Background was counted in the absence of peptide substrate. Total activity was determined in the presence of peptide substrate. The following protocol was used to determine Btk inhibition.
1) Sample preparation: The test compounds were diluted at half-log increments in assay buffer (imidazole, glycerol-2-phosphate, EGTA, MnCl2, MgCl2, BSA).
a.) rinse beads by centrifuging at 500 g
b.) reconstitute the beads with PBS and EDTA to produce a 20% bead slurry
3) Pre-incubate reaction mix without substrate (assay buffer, DTT, ATP, ^33P ATP) and mix with substrate (assay buffer, DTT, ATP, ^33P ATP, peptide substrate) 30° C. for 15 min.
4) To start assay, pre-incubate 10 μL Btk in enzyme buffer (imidazole, glycerol-2-phosphate, BSA) and 10 μL of test compounds for 10 min at RT.
5) Add 30 μL reaction mixture without or with substrate to Btk and compounds.
6) Incubate 50 μL total assay mix for 30 min at 30° C.
7) Transfer 40 μL of assay to 150 μL bead slurry in filter plate to stop reaction.
8) Wash filter plate after 30 min, with following steps
b. 3×250 μL NaCl containing 1% phosphoric acid
9) Dry plate for 1 h at 65° C. or overnight at RT
10) Add 50 μL microscint-20 and count ^33P cpm on scintillation counter. […]

Chain of Btk enzyme (His-tagged, full-length) (Q06187 whole entry): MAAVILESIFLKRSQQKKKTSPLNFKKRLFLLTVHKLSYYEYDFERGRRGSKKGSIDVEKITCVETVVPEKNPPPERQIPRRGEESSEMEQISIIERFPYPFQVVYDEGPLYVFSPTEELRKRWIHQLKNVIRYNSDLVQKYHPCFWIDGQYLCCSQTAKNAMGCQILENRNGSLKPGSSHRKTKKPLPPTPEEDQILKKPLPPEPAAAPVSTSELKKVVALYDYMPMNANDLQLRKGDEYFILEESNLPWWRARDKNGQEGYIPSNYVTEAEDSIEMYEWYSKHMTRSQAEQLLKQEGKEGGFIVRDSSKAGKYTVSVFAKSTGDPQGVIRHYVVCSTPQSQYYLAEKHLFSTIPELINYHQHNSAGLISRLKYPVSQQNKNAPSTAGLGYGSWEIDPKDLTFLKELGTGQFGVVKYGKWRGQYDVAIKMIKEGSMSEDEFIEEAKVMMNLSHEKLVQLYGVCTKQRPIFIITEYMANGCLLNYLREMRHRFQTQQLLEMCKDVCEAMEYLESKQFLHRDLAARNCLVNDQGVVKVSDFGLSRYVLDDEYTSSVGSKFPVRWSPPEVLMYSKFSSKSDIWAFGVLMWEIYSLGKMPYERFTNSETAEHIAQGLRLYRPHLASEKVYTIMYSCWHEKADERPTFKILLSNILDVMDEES

| SMILES | pIC50 [1] | melting point |
| --- | --- | --- |
| CNC(=O)Nc1cc(-c2cccc(-n3cnc4cc(C(C)(C)C)ccc4c3=O)c2C)cn(C)c1=O [Compound I-1, 1-{5-[3-(7-tert-Butyl-4-oxo-4H-quinazolin-3-yl)-2-methyl-phenyl]-1-methyl-2-oxo-1,2-dihydro-pyridin-3-yl}-3-methyl urea] | 6.95 |  |
| CNC(=O)Nc1cc(-c2cccc(N3CNc4cc(N(C)C)ccc4C3=O)c2C)cn(C)c1=O [II-2, 1-{5-[3-(7-Dimethylamino-4-oxo-1,4-dihydro-2H-quinazolin-3-yl)-2-methyl-phenyl]-1-methyl-2-oxo-1,2-dihydro-pyridin-3-yl}-3-methyl-urea] |  | 218.5 to 223.8 °C |

Next, values leading:

| pIC50 [1] | melting point | SMILES |
| --- | --- | --- |
| 6.91 |  | Cc1c(-c2cc(Nc3ccc(C(=O)N4CCOCC4)cn3)c(=O)n(C)c2)cccc1-n1ncc2cc(N(C)C)ccc2c1=O [III-1, 6-Dimethylamino-2-(2-methyl-3-{1-methyl-5-[5-(morpholine-4-carbonyl)-pyridin-2-ylamino]-6-oxo-1,6-dihydro-pyridin-3-yl}-phenyl)-2H-phthalazin-1-one] |
| 7.66 | 247.1 to 250.9 °C | Cc1c(-c2cc(Nc3ccc(C(=O)N4CCOCC4)cn3)c(=O)n(C)c2)cccc1N1CNc2cc(N(C)C)ccc2C1=O [II-1, 7-Dimethylamino-3-(2-methyl-3-{1-methyl-5-[5-(morpholin-4-carbonyl)-pyridin-2-ylamino]-6-oxo-1,6-dihydro-pyridin-3-yl}-phenyl)-2,3-dihydro-1H-quinazolin-4-one] |
| 7.74 | 196 to 197 °C | Cc1c(-c2cc(Nc3ccc(C(=O)N4CCOCC4)cn3)c(=O)n(C)c2)cccc1N1CNc2cc(C(C)(C)O)ccc2C1=O [II-3, 7-(1-Hydroxy-1-methyl-ethyl)-3-(2-methyl-3-{1-methyl-5-[5-(morpholine-4-carbonyl)-pyridin-2-ylamino]-6-oxo-1,6-dihydro-pyridin-3-yl}-phenyl)-2,3-dihydro-1H-quinazolin-4-one] |
